Reference: patent publication US9126060B2, “Cosmetic use of geranylgeranyl-2-propanol” (SEDERMA, priority 2010, dated 2015)

Key:
[1] = tested on: nidogen 1; experiment: Nidogen 1 biosynthesis in fibroblast culture (ELISA); assay type: cell-based, human; settings: 3 days, n = 5
Protocol: Principle: Normal human fibroblasts were brought to confluence, then placed or not in contact with the GGP, at 1 or 2.5 ppm, for 3 days. After this incubation the nidogen 1 content is determined by ELISA in cell homogenates, and divided by the number of cells.

[2] = tested on: fibroblasts; experiment: DNA array gene expression on fibroblasts; assay type: cell-based
[3] = tested on: human dermal fibroblasts; experiment: Senescence associated β-galactosidase activity in fibroblasts after oxidising stress (FDG fluorimetry); assay type: cell-based; settings: for β-galactosidase relative activity: after oxidising stress, n = 4
Protocol: Principle: Proliferative human dermal fibroblasts were contacted or not with the GGP for 72 hours in a growth medium. After this first incubation, the cells were subjected for 5 days to an oxidative stress daily, one hour each, in a basic medium, common to all cultures. This stress is known to create a SIPS and to induce a strong increase in β-galactosidase activity in the stressed culture compared to an unstressed culture. Between two stress cells are returned to the growth medium with or without the substance tested. After the fifth stress, β-galactosidase activity is evaluated.
Evaluation of β-galactosidase activity is done after fixing the layers. They are put in contact with a substrate of β-galactosidase nonfluorescent FDG (fluorescein di-β-galactopyranoside), which will release a fluorescent compound upon hydrolysis by β-galactosidase. The emitted fluorescence is quantified in a fluorometer. It will increase with the amount of senescent cells present in culture. The relative activity of β-galactosidase thus found is 2974+/−957 UFA/million cells in a proliferative culture and increases by a factor 5 (p<0.01) in a culture little to not proliferative.

[4] = tested on: presenescent fibroblasts; experiment: Mitochondrial membrane potential of presenescent fibroblasts (dye ratio λ520/λ590); assay type: cell-based; settings: for Improvement of the respiration potential / Change with regard to non stressed young cells: with oxidative stress; for Change with regard to non stressed young cells: control −100%
Excerpt: It is possible to measure the membrane potential through a specific membrane dye. Depending on the level of the membrane potential, this dye is rather present as monomer (emission fluorescence at 520 nm) or rather in the multimetric form (fluorescence emission at 590 nm). High membrane potential promotes a multimetric form.
The ratio λ520/λ590 varies inversely with the membrane potential. The lower the ratio is, the higher the membrane potential is. The increase in the ratio thus reflects a decrease in membrane potential. The ratio λ520/λ590 for young and proliferating cells is 2.97+/−0.17.
[…] After this period, the membrane potential of half of the cultures was measured.
The other half of the cultures underwent an oxidative stress (hydrogen peroxide) before measuring their membrane potential.

[5] = tested on: Normal human dermal fibroblasts; experiment: Mean telomere length of fibroblasts in natural senescence (real-time quantitative PCR); assay type: cell-based; settings: 1.65 ppm
Excerpt: The applicant has performed the average length measurement of the telomeres of a culture by a rapid method using PCR (Polymerase Chain Reaction) real-time quantitative.
This method relies on the use of two oligonucleotide primers specific of the telomeric repeat sequence (TTAGGG) and thus capable of hybridizing themselves to each of the two complementary strands of telomeric DNA, and then able to be amplified during the PCR cycles proportionally to the average length of telomeres of the genomic DNA of a given culture. A fluorescent molecule, intercalated into DNA double strand, is used to quantify the phenomenon (hybridization+amplification) at the end of each cycle. The parameter for evaluating the significance of this phenomenon is the Ct, cycle number of hybridization amplification necessary to reach a given fluorescence threshold above background noise.
Each Ct will be converted into an average length of telomeres, with a reference range obtained with successive dilutions from a standard solution of a synthetic oligonucleotide of 84 bases, consisting of 14 repeats of the TTAGGG sequence, each of these dilutions (or point range) being subjected to real-time quantitative PCR.
To be accurate, the assessment must take into account the number of genomes present. The latter will be appreciated by a PCR conducted in parallel with a control gene, 36B4, encoding a ribosomal phosphoprotein with two primers (oligonucleotides) specific for this gene. The Ct obtained in this PCR will be converted into a number of genomes using a standard range made from an oligonucleotide of 75 bases, representing the amplicon obtained with primers specific to 36B4.
Therefore is obtained for each total DNA extracts from a given culture, an average length of telomere per genome.
Principle: Normal human dermal fibroblasts are grown on several cell passages, in contact or not with the GGP until a strong slowdown and little or not proliferative cells. At this stage, cultures are stopped, DNA extracted and the average telomere length measured for each culture.

[6] = tested on: syndecan 1; experiment: Syndecan 1 synthesis in NHK supernatants (ELISA); assay type: cell-based, human; settings: for Syndecan 1: 48 h, n = 3
Protocol: Principle: Human keratinocytes (NHK) are cultivated in a growth medium. After 6 days of incubation, the cells are contacted or not with the tested products (GGP and GGA) at 3, 5 or 7 ppm for 48 h. After incubation, the supernatants are taken and the syndecan 1 content is assayed by ELISA in these supernatants. The cell layers are sonicated and the cell number is evaluated by Hoechst method.

[7] = after 3, 6 and 24 hours of contact
[8] = after 6 and 24 hours of contact

With CC(C)=CCC/C(C)=C/CC/C(C)=C/CC/C(C)=C/CCC(C)O (centres unmarked) [GGP, 6,10,14,18-tetramethylnonadeca-5,9,13,17-tetraen-2-ol] as the compound, how does the “Stimulation % of nidogen 1 biosynthesis” value ([1]; 1 ppm) read?
Its value is “+28%”.

What about the “Stimulation % of nidogen 1 biosynthesis” value ([1]; 2.5 ppm) of the same compound?
The value was “+94%”.

And the “gene expression of actin gamma 2 (ACTG2)” value [2, 7]?
Its value is “increase in gene expression”.

And the “gene expression of filament associated actin protein (AFAP1L1)” value [2, 7]?
The value was “increase in gene expression”.

What about the “gene expression of hyaluronic acid synthase 2” value [2, 7] of the same compound?
Its value is “increase in gene expression”.

And the “expression of JMJD6 gene” value [2, 8]?
The value was “increased expression”.

And the “expression of PLOD2 gene” value [2, 8]?
The value was “increased expression”.

What about the “Change with regard to control (β-galactosidase)” value ([3]; 3 ppm) of the same compound?
The value was −35%; p = 0.05.

What about the β-galactosidase relative activity ([3]; 3 ppm) of the same compound?
The β-galactosidase relative activity was 3702 +/− 992 FAU/10^6 cells.

And the “Change with regard to control (β-galactosidase)” value ([3]; 5 ppm)?
Its value is −51%; p < 0.02.

And the β-galactosidase relative activity ([3]; 5 ppm)?
The β-galactosidase relative activity was 2789 +/− 803 FAU/10^6 cells.

What about the “% of protection of the respiration potential” value ([4]; 3 ppm, no stress) of the same compound?
The value was “+22%; nsd”.

And the “ΔΨ loss with regard to non stressed young cells” value ([4]; 3 ppm, one week, no stress)?
The value was 1.11 +/− 0.33.

What about the “Improvement of the respiration potential” value ([4]; 3 ppm) of the same compound?
The value was “+35%; p < 0.05”.

What about the “ΔΨ loss with regard to non stressed young cells” value ([4]; 3 ppm, with oxidative stress (hydrogen peroxide)) of the same compound?
Its value is 3.57 +/− 0.69.

What about the “Change with regard to non stressed young cells” value ([4]; 3 ppm) of the same compound?
The value was −65%.

What about the “% of protection of the respiration potential” value ([4]; 5 ppm, no stress) of the same compound?
The value was “+41%; p < 0.01”.

And the “ΔΨ loss with regard to non stressed young cells” value ([4]; 5 ppm, one week, no stress)?
The value was 0.84 +/− 0.08.

What about the “Improvement of the respiration potential” value ([4]; 5 ppm) of the same compound?
Its value is “+63%; p < 0.01”.

And the “ΔΨ loss with regard to non stressed young cells” value ([4]; 5 ppm, with oxidative stress (hydrogen peroxide))?
Its value is 2.03 +/− 0.69.

And the “Change with regard to non stressed young cells” value ([4]; 5 ppm)?
Its value is −37%.

And the Mean telomere length ([5]; presenescent cells, n = 3)?
The Mean telomere length was 8.35 +/− 0.75 kb/genome.

What about the “protection against natural telomere erosion (length vs control)” value ([5]; vs presenescent control) of the same compound?
Its value is “+1.45 kb →”.

What about the “Telomere erosion due to aging” value ([5]; vs proliferative cells) of the same compound?
The value was −2.31 kb; nsd kb/genome.

What about the “Change (%) of syndecan 1 vs control” value ([6]; 3 ppm) of the same compound?
The value was “+96%; p < 0.01”.

And the “Syndecan 1” value ([6]; 3 ppm)?
Its value is 135.3 +/− 6.3 pg/10^6 cell.

What about the “Change (%) of syndecan 1 vs control” value ([6]; 5 ppm) of the same compound?
Its value is “+190%; p < 0.01”.

What about the “Syndecan 1” value ([6]; 5 ppm) of the same compound?
The value was 200.6 +/− 15.8 pg/10^6 cell.

What about the “Syndecan 1” value ([6]; 7 ppm) of the same compound?
The value was 265.5 +/− 24.3 pg/10^6 cell.
